This is an account of results in patent US11408886B2, “Method of screening for novel therapeutic targets to develop therapeutic agents for colon cancer and prognostic biomarkers for colon cancer treatment screened using the same” (KOREA INSTITUTE OF SCIENCE AND TECHNOLOGY, priority 2018, dated 2022).

The subject of assay [1] is colon cancer cells. In words: Protein expression level changes after treatment with FAK inhibitors (in-solution digestion, protein identification, expression ratios, FIG. 14). The conditions noted are these: 2 hours (FIG. 14). Type of assay: cell-based, human. Details: dose or concentration left out as unconfirmed. On the procedure:
A human colon cancer cell line, HCT-116, was cultured using an RPMI-1640 medium containing 10% (v/v) heat-inactivated FBS and 1% (v/v) penicillin/streptomycin in a 60 mm plastic culture plate (Corning Life Science, Acton, Mass., USA) until its cell density reached 2×10^6 cells/cm^2. The culture was performed in a humidified incubator of 5% CO2 at 37° C. The cells were starved for 24 hours and washed with serum-free medium. FGF signaling was amplified by adding 10 ng/mL of EGF, IGF, PMA, and PDGF, followed by further incubation for 2 hours. Thereafter, the cells were harvested and collected by centrifugation at a speed of 300 g for 5 minutes. Cell membranes were disrupted using a sonicator, and centrifuged at a speed of 13,000 g for 30 minutes to collect lysed intracellular proteins. Further, to compare the amounts of expressed FAK-binding proteins by using defactinib (VS-6063) and PF-573228, which are FAK inhibitors, independently or simultaneously, normal intestinal epidermal cells and colon cancer cells were each treated with FAK inhibitors at three different final concentrations […], 1 mM, and 10 mM (2 hours), and then cells were collected and subjected to in-solution digestion to isolate and identify the proteins.

In assay [2] the test system is colon cancer cell line HCT-116. As to the kind of experiment: Western blotting / immunoprecipitation of FAK and FAK-bound protein complexes after treatment with FAK signaling substances. Type of assay: cell-based, human. The settings on record: HCT-116, 10 ng/mL, 2 hours, compared with control group not treated with the signaling substances (FIG. 7). On the procedure:
A human colon cancer cell line, HCT-116, was cultured using an RPMI-1640 medium containing 10% (v/v) heat-inactivated FBS and 1% (v/v) penicillin/streptomycin in a 60 mm plastic culture plate (Corning Life Science, Acton, Mass., USA) until its cell density reached 2×10^6 cells/cm^2. The culture was performed in a humidified incubator of 5% CO2 at 37° C. The cells were starved for 24 hours and washed with serum-free medium. FGF signaling was amplified by adding 10 ng/mL of EGF, IGF, PMA, and PDGF, followed by further incubation for 2 hours. Thereafter, the cells were harvested and collected by centrifugation at a speed of 300 g for 5 minutes. Cell membranes were disrupted using a sonicator, and centrifuged at a speed of 13,000 g for 30 minutes to collect lysed intracellular proteins. Further, to compare the amounts of expressed FAK-binding proteins by using defactinib (VS-6063) and PF-573228, which are FAK inhibitors, independently or simultaneously, normal intestinal epidermal cells and colon cancer cells were each treated with FAK inhibitors at three different final concentrations of 0.1 mM, 1 mM, and 10 mM (2 hours), and then cells were collected and subjected to in-solution digestion to isolate and identify the proteins.
The concentrations of the collected proteins were determined using a bicinchoninic acid (BCA) protein assay kit (Thermo Fisher Scientific, Waltham, Mass., USA), and the remaining samples were separated by 10% SDS-PAGE (sodium dodecyl sulfate-polyacrylamide gel electrophoresis), and transferred to a nitrocellulose membrane (Pall Corporation, Pensacola, Fla., USA) to perform Western blotting. The membrane was blocked with PBS containing 0.2% TWEEN 20 and 5% non-fat dry milk for about 2 hours, and blotting was performed using anti-phospho-FAK (1:1000) antibody and anti-β-actin (1:5000) antibody overnight. HRP-conjugated goat anti-rabbit IgG diluted 1:5000 was used as a secondary antibody, and fluorescence images were scanned using an Ez-capture MG (ATTO, NY, USA) instrument. For IP, 1.5 mg of the cell lysate was prepared and incubated overnight with 20 μL of agarose beads preblocked (at 4° C. for 2 hours) with PBS containing 1% bovine serum albumin (BSA), wherein 10 μL of FAK antibody (1:500) was immobilized to the agarose beads. To remove nonspecific binding, the beads were washed with 600 μL of PBS containing 0.1% TWEEN 20 twice, and FAK protein and proteins bound thereto were crosslinked using 2 mM of dithiobis(succinimidyl propionate) (DSP) and dithiobismaleimidoethane (DTME). The crosslinking agents were dissolved in 20 mM DMSO and diluted with PBS (pH 7.4), and then used in the reaction. Washing was performed five times using 600 μL of a 0.1% solution of PBS-Tween 20 and further performed using PBS twice. […]

For `CS(=O)(=O)c1cccc(CNc2nc(Nc3ccc4c(c3)CCC(=O)N4)ncc2C(F)(F)F)c1` [PF-573228], in assay [1], the ELAVL1 expression level entry is reported as “statistically significant reduction”, the SYNE1 expression level result is on record as “statistically significant reduction” and the ZYX expression level result is on record as “statistically significant reduction”. For the same molecule, in assay [1] (reduction only with PF-573228), the ARFGEF expression level entry was “significant reduction”. Consider `CCCCCCCCCCCCCC(=O)O[C@@H]1[C@@H](C)[C@@]2(O)[C@@H](C=C(CO)C[C@]3(O)C(=O)C(C)=C[C@@H]23)[C@@H]2C(C)(C)[C@]12OC(C)=O` [PMA, phorbol 12-myristate 13-acetate], for which, in assay [2], the “complexes of the FAK protein and the proteins specifically bound thereto” value is reported as “increased two-fold or more”.

In the case of PDGF, the “complexes of the FAK protein and the proteins specifically bound thereto” value in assay [2] was “increased two-fold or more”.

Turning to “hEGF: human epidermal growth factor, FAK signaling substance”, the “complexes of the FAK protein and the proteins specifically bound thereto” value in assay [2] is given as “increased two-fold or more”. On to “hIGF-1: human insulin-like growth factor-1, FAK signaling substance”, for which, in assay [2], the “complexes of the FAK protein and the proteins specifically bound thereto” value is reported as “increased two-fold or more”.
